From patent US20250242031A1, “POLYMER SALTS FOR IMPROVED DRUG DELIVERY FROM AMORPHOUS SOLID DISPERSIONS” (Purdue Research Foundation, priority 2022, published 2025)
In brackets after ≈: the same amount, converted by molar mass.

Experiment: Drug amorphous solubility
Format: physicochemical
Conditions: aqueous buffer; miconazole, dissolution medium pH 6.8

Which solubility does the source give for Clc1ccc(COC(Cn2ccnc2)c2ccc(Cl)cc2Cl)c(Cl)c1 (stereo not shown) [miconazole] here?
The solubility was ~5 µg/mL (≈ 12 µM).
